# From US6951682B1, “Porous coatings bearing ligand arrays and use thereof” (Syntrix Biochip, Inc., priority 1998, dated 2005)
# Key:
# [1] = system: surface-bound DNA-ligand 5′-GCCTACGC-3′; test: Hybridization of fluorescein-labeled DNA-receptor to DNA-ligand synthesized on patterned porous coating (epifluorescence); format: binding; conditions: 10 μM in 6×SSPE, 1 hour at 4° C., wash at 15° C.; 10× objective, 15 seconds exposure
# Protocol: Using the DNA synthesizer to automatically deliver reagents, the DNA-ligand with the sequence 5′-[…]-3′ was synthesized via eight phosphoramidite couplings on the exposed hydroxyl groups beginning with the 3′ end. Following synthesis, the reactor system was separated from the DNA synthesizer, and the phosphate and exocyclic amine protecting groups removed by manually applying 0.05 M potassium carbonate in methanol to the reactor cavity for 2 hours at room temperature. […]
# The 6×SSPE solution is a high-salt buffer with a pH of 7.4 comprising 1M NaCl, 66 mM NaH2PO4/Na2HPO4, 6 mM EDTA, and 0.05° Triton X-100-™ The slide was subsequently washed in 6×SSPE at a temperature of 15° C., and mounted on a modified microscope stage attached to a Standard Epifluorescence Microscope The stage contained an aqueous gel within its interior that was chilled to approximately 4° C. prior to image acquisition. The fluorescence image of FTA hybridized to the porous coating was captured using a 35 mm camera attached to the microscope. […]
# Following hybridization, the slide was washed in 6×SSPE at a temperature of 15° C. and mounted on the modified stage as described above. The fluorescence image of the FAA hybridization was captured with the 10× objective of a Standard Epifluorescence Microscope with attached 35 mm camera. […]
# [2] = system: PNA-array linker-spacer-CGN1N2TCCG-NH2; test: Hybridization of fluorescein-labeled DNA-receptor to 16-element PNA-array on patterned porous coating (epifluorescence); format: binding; conditions: 10 μM in 6×SSPE, 10 minutes at room temperature; 10× objective, 15 seconds exposure
# Protocol: A patterned porous coating comprising a 4×4 array of 600 μm×600 μm porous squares was prepared as described in Example 19, and coupled with amino-linker molecules using the method described in Example 20. The PNA-array was then synthesized on the surface of the patterned porous coating with each array element occupying one 600 μm×600 μm porous square. Each element of the array comprised one of the 16 possible combinations of the sequence, linker-spacer-CGN1N2TCCG-NH2, where N1 and N2 may independently be A, G, C, or T. The position of each element in the array, as referenced by the N1N2 sequence, is shown in the array schematics of FIGS. 6A and 6B. […]
# The fluorescence image of the porous coating was captured at room temperature using a 35 mm camera attached to a Standard Epifluorescence Microscope. The fluorescence image of FAA bound at the predicted array element is readily detected and visualized using an objective magnification of 10× and an exposure time of 15 seconds (see FIG. 6 and corresponding surface plot).
# Bound FAA was dissociated from the PNA-array by immersing the slide in 90° C. water, and the hybridization repeated with FTA using conditions as described above for FAA. The fluorescence image of the FTA hybridization was captured with the 10× objective of a Standard Epifluorescence Microscope with attached 35 mm camera. […]
# [3] = target: T1, angiotensin converting enzyme (ACE) (Homo sapiens, UniProt P12821); test: ACE inhibitory activity, functional assay with substrate FAPGG (absorbance at 328 nm); format: biochemical; conditions: 10 nM ACE, 50 μM FAPGG
# T1 sequence (P12821 30-1306, species assumed): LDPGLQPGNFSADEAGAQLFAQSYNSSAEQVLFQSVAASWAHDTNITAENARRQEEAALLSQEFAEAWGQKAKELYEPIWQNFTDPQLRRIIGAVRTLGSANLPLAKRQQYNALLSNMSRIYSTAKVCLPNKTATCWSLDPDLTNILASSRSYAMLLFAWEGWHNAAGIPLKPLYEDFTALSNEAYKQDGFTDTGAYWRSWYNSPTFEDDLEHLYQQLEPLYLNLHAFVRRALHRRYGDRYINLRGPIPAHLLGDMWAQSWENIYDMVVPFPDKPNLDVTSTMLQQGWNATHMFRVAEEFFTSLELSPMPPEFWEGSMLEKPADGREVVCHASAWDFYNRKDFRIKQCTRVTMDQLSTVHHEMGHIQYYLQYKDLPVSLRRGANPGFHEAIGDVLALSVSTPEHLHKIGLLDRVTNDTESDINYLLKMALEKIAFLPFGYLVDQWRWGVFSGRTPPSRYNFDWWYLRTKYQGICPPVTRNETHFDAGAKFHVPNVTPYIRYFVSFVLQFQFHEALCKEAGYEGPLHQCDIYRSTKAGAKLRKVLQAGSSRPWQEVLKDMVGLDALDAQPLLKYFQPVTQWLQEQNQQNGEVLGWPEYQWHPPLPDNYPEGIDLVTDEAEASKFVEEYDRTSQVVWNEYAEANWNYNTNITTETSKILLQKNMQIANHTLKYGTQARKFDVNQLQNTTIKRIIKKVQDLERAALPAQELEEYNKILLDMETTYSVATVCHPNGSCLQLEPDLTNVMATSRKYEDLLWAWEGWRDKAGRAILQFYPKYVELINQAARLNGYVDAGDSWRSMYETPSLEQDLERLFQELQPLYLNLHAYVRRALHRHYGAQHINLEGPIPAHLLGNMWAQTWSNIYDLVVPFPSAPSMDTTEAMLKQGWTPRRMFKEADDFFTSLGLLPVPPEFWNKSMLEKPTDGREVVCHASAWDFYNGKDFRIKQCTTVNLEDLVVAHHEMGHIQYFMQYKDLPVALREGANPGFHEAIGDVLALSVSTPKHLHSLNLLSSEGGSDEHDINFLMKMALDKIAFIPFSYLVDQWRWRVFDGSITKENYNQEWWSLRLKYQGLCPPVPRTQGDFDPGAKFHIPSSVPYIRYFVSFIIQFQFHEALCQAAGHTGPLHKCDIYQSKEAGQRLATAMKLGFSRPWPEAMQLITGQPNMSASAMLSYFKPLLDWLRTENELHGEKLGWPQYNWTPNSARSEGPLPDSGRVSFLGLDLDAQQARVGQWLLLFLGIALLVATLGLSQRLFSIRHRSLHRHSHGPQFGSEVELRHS
# Protocol: Each assay mixture contained 10 nM ACE, 50 μM FAPGG, 50 mM Tris (pH 8.3), 300 mM NaCl, and 20-40 μl of each of the above analogue solutions in a total reaction volume of 50 μl. The above mixture without analogue served as the negative control for inhibitory activity. […] Each reaction was initiated by adding 5 μl of 500 μM FAPGG to 45 μl of the remaining assay components in a 100 μl cuvette. The temporal progress of each reaction was monitored by measuring the absorbance at 328 nm every 15 seconds.
# The percent ACE inhibition is expressed as the percent decrease in initial velocity relative to the initial velocity of the negative control. […] Compositions are referenced by R1 and R2 groups as defined in Table XI.
# [4] = target: T1, angiotensin converting enzyme (ACE); conditions: as reported by Patchett et al.; read-out: IC50 (binding affinity for ACE); cited from earlier work
Compound,fluorescence image of hybridized DNA-receptor [1],specificity of hybridization to PNA-array [2],"percent ACE inhibition (percent decrease in initial velocity relative to the negative control) ([3]; analogue cleaved from one array element of a 1 μm thick porous coat, pH 8.3)",IC50 [4],"initial velocity ([3]; positive control, 250 nM lisinopril)"
5′-GCGAAGGC-fluorescein [FAA],equivalent to the images with no receptor,hybridizes specifically to its complementary PNA sequence with little or no signal from other array elements,–,–,–
5′-GCGTAGGC-fluorescein [FTA],readily visible,hybridizes specifically to its complementary PNA sequence with little or no signal from other array elements,–,–,–
CC(NC(Cc1ccccc1)C(=O)O)C(=O)N1CCCC1C(=O)O (stereo not shown) [R1a+R2a],–,–,35%,0.039 µM,–
NCCCC[C@H](N[C@@H](CCc1ccccc1)C(=O)O)C(=O)N1CCC[C@H]1C(=O)O [lisinopril],–,–,–,–,zero
